Where “and” joins values, the source holds several entries; their conditions need not be identical. Identical values can stand only once. Calls of active or inactive are those of the source.

What is called Ki is a dissociation constant, usually derived from enzyme kinetics or from competition with a known ligand. In general, EC50 refers to the concentration needed to bring the measured effect to its halfway point. What is called AC50 is the concentration at which the activity in the assay is half-maximal.

Assay [1] has as its target Dual specificity protein kinase CLK2 (Homo sapiens, UniProt P49760). In kind it is functional.
Assay [2] has as its target Casein kinase I isoform alpha (Homo sapiens, UniProt P48729). The format is functional.
Assay [3] addresses Serine/threonine-protein kinase pim-1 (Homo sapiens, UniProt P11309). In kind it is functional.
The target in assay [4] is Fibroblast growth factor receptor 1 (Homo sapiens, UniProt P11362). In kind it is functional.
For assay [5], the target named is Tyrosine-protein kinase JAK3 (Homo sapiens, UniProt P52333). In kind it is functional.
For the next assay, the target named is Focal adhesion kinase 1 (Homo sapiens, UniProt Q05397). The format is functional.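 Note: measured as one member of a kinome panel.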
The target of assay [6] is Serine/threonine-protein kinase D3 (Homo sapiens, UniProt O94806). In kind it is functional.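 Note: determined within a kinase panel screen, with PRKCN as the panel member.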
The target in assay [7] is Macrophage-stimulating protein receptor (Homo sapiens, UniProt Q04912). The assay can be described thus: Navigating the Kinome. Panel member name: MST1R. The format is functional.
The target in assay [8] is Mitogen-activated protein kinase 9 (Homo sapiens, UniProt P45984). In kind it is functional.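 Note: value from a kinome panel profiling assay, MAPK9 panel entry.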
Assay [9] addresses BDNF/NT-3 growth factors receptor (Homo sapiens, UniProt Q16620). The format is functional.
Assay [10] addresses Mitogen-activated protein kinase 14 (Homo sapiens, UniProt Q16539). The format is functional.
Assay [11] addresses Mitogen-activated protein kinase kinase kinase kinase 5 (Homo sapiens, UniProt Q9Y4K4). The format is functional.
Assay [12] deals with Death-associated protein kinase 3 (Homo sapiens, UniProt O43293). The format is functional.
The target in assay [13] is T1, Glycogen synthase kinase-3 alpha (Homo sapiens, UniProt P49840). In kind it is functional.
Assay [14] deals with Calcium/calmodulin-dependent protein kinase type II subunit alpha (Homo sapiens, UniProt Q9UQM7). The assay can be described thus: Navigating the Kinome. Panel member name: CAMK2A. The format is functional.
Assay [15] has as its target Tyrosine-protein kinase Lck (Homo sapiens, UniProt P06239). In kind it is functional.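 Note: lck was assayed as one member of a kinase panel.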
Assay [16] addresses Vascular endothelial growth factor receptor 1 (Homo sapiens, UniProt P17948). In kind it is functional.
For assay [17], the target named is Tyrosine-protein kinase Fyn (Homo sapiens, UniProt P06241). In kind it is functional.
Assay [18] deals with Serine/threonine-protein kinase N2 (Homo sapiens, UniProt Q16513). The format is functional.
For assay [19], the target named is Inhibitor of nuclear factor kappa-B kinase subunit epsilon (Homo sapiens, UniProt Q14164). The assay can be described thus: Navigating the Kinome. Panel member name: IKBKE. The format is functional.
For assay [20], the target named is Mast/stem cell growth factor receptor Kit (Homo sapiens, UniProt P10721). The format is functional.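 Note: KIT entry within a kinase panel assay.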
Assay [21] concerns the target ALK tyrosine kinase receptor (Homo sapiens, UniProt Q9UM73). In kind it is functional.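 Note: ALK tested as one member of a kinase panel screen.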
For a further assay, the target named is Activated CDC42 kinase 1 (Homo sapiens, UniProt Q07912). The assay is described as follows: Navigating the Kinome. Panel member name: ACK1. The format is functional.
In assay [22] the target is Cyclin-dependent kinase 8 (Homo sapiens, UniProt P49336). The assay is described as follows: Navigating the Kinome. Panel member name: CDK8. The format is functional.
For assay [23], the target named is Mitogen-activated protein kinase 8 (Homo sapiens, UniProt P45983). The format is functional.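 Note: value comes from one member of a kinome-wide kinase profiling panel.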
Assay [24] deals with Tyrosine-protein kinase ABL1 (Homo sapiens, UniProt P00519). The format is functional.
In assay [25] the target is Mitogen-activated protein kinase kinase kinase kinase 4 (Homo sapiens, UniProt O95819). In kind it is functional.
Assay [26] has as its target T2, Glycogen synthase kinase-3 beta (Homo sapiens, UniProt P49841). In kind it is functional.
For assay [27], the target named is Tyrosine-protein kinase BTK (Homo sapiens, UniProt Q06187). In kind it is functional.
For assay [28], the target named is G protein-coupled receptor kinase 5 (Homo sapiens, UniProt P34947). The assay can be described thus: Navigating the Kinome. Panel member name: GPRK5. The format is functional.
In assay [29] the target is Ribosomal protein S6 kinase alpha-3 (Homo sapiens, UniProt P51812). In kind it is functional.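 Note: measured within a kinome-wide profiling panel.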
In assay [30] the target is Serine/threonine-protein kinase TAO1 (Homo sapiens, UniProt Q7L7X3). The format is functional.
Assay [31] can be described thus: inhibitors of firefly luciferase expression or activity, dose response, H4 neuroglioma cells, luminescence (AID 1990). In kind it is functional, cell-based.
The nature of assay [32]: cytotoxicity toward NIH3T3 fibroblasts, dose response, counter-screen, cell-based, ATP luminescence, mouse fibroblasts (AID 2010).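 Note: cells exposed to compound for about 90 hours before reading.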 The format is functional.
Assay [33] addresses T3, DNA dC->dU-editing enzyme APOBEC-3A (Homo sapiens, UniProt P31941). The assay is described as follows: SAR analysis of small molecule inhibitors of APOBEC3A DNA Deaminase via a fluorescence-based single-stranded DNA deaminase assay. To be noted: read-out: IC50_Mean. In kind it is functional.
The target of assay [34] is FAD-linked sulfhydryl oxidase ALR (Homo sapiens, UniProt P55789). The assay is described as follows: inhibitors of human ALR sulfhydryl oxidase, dose response, biochemical, H2O2 detection, luminescence, cherry-pick (AID 493248).
The nature of assay [35]: inhibitors of intracellular T. cruzi replication, confirmation, NIH3T3 host cells, beta-gal luminescence (AID 2044).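 Note: intracellular parasites grown in NIH/3T3 mouse fibroblasts as host cells; luminescent beta-galactosidase reporter signal from transgenic T. cruzi replicating inside host cells; inhibitors lower the luminescence signal.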 In kind it is functional, cell-based.
Assay [36] addresses T3, DNA dC->dU-editing enzyme APOBEC-3A. The assay is described as follows: SAR analysis of small molecule inhibitors of APOBEC3A DNA Deaminase via a fluorescence-based single-stranded DNA deaminase assay - Set 2. The format is functional. To be noted: read-out: IC50_Mean.
Assay [37] addresses Beta-lactamase (Salmonella choleraesuis (strain SC-B67), UniProt Q5J463).
Assay [38] concerns the target T4, DNA dC->dU-editing enzyme APOBEC-3G (Homo sapiens, UniProt Q9HC16). The assay can be described thus: APOBEC3G deaminase inhibitors, SAR follow-up, biochemical, fluorescence, single-stranded DNA substrate (AID 602136). The format is functional. To be noted: read-out: IC50_Mean.
Assay [39] concerns the target Beta-lactamase (Pseudomonas aeruginosa, UniProt Q79MP6).
Assay [40] is described as follows: inhibitors of SNCA 5'UTR-driven reporter translation, confirmation, H4 neuroglioma cells, luminescence (AID 1988). In kind it is functional, cell-based.
Assay [41] concerns the target T4, DNA dC->dU-editing enzyme APOBEC-3G. The assay can be described thus: SAR analysis of small molecule inhibitors of APOBEC3G DNA Deaminase via a fluorescence-based single-stranded DNA deaminase assay - Set 2. In kind it is functional. To be noted: read-out: IC50_Mean.
Assay [42] is described as follows: Luminescence Cell-Based Dose Response HTS to Identify Inhibitors of 5'UTR Stem-Loop Driven Prion Protein mRNA Translation in H4 Neuroglioblastoma Cells. [Related pubchem assays: 1827 (Project Summary), 1813 (Primary HTS)]. In kind it is functional.
The target of assay [43] is T4, DNA dC->dU-editing enzyme APOBEC-3G. In kind it is functional.
The next assay concerns INS1. The assay can be described thus: beta cell apoptosis inhibitors, cytokine rescue, dose response, luminescence, retest (AID 449756).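 Note: cell death triggered by IL-1 beta plus TNF-alpha plus IFN-gamma mixture; protective hits raise ATP signal compared with cytokine alone wells.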 In kind it is functional, cell-based. To be noted: Rattus norvegicus.
The target in assay [44] is T3, DNA dC->dU-editing enzyme APOBEC-3A. The assay can be described thus: Dose Response confirmation of small molecule APOBEC3A DNA Deaminase Inhibitors via a fluorescence-based single-stranded DNA deaminase assay. [Related pubchem assays (depositor defined):AID493011, AID493024]. In kind it is functional.
Assay [45] has as its target T2, Glycogen synthase kinase-3 beta. The assay is described as follows: GSK3beta kinase inhibitors, dose response, biochemical, microfluidics, dry powder samples, set 2 (AID 623989). In kind it is functional.
In assay [46] the target is T1, Glycogen synthase kinase-3 alpha. The assay is described as follows: human GSK3 alpha kinase inhibition, dose response, selectivity assay for GSK3beta inhibitor project, biochemical, microfluidics, dry powder samples, set 2 (AID 623978). The format is functional.
For another assay, the target named is Cytochrome P450 2C9 (Homo sapiens, UniProt P11712).
In a further assay the target is Cytochrome P450 2C19 (Homo sapiens, UniProt P33261). The assay is described as follows: Cytochrome panel assay with activity outcomes. Panel member name: p450-cyp2c19 Compounds with AC50 equal or less than 10 uM are considered active. In kind it is functional. To be noted: read-out: AC50.
Assay [47] deals with Melanin-concentrating hormone receptor 1 (Homo sapiens, UniProt Q99705). The assay is described as follows: Late-stage fluorescence-based counterscreen for antagonists of the G-protein coupled receptor 7 (GPR7): cell-based dose response assay to identify antagonists of the melanin-concentrating hormone receptor 1 (MCHR1) Set 5. The format is functional. On the technique in general: The purpose of a counterscreen is to sort out artefacts and off-target activity.

Assay [48] deals with T5, Neuropeptides B/W receptor type 1 (Homo sapiens, UniProt P48145).
T5 sequence (P48145 whole entry): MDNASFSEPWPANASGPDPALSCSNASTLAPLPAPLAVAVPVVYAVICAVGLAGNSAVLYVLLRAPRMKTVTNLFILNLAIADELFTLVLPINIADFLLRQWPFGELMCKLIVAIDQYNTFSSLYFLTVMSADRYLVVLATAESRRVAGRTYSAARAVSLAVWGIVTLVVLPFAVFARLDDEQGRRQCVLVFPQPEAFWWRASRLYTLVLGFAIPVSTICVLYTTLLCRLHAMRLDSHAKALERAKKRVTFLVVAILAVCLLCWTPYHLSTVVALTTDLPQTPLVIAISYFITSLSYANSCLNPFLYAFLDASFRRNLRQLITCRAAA
The assay can be described thus: GPR7 antagonist potency, late-stage follow-up, cell-based, fluorescence, dose response, set 5 (AID 588566). The format is functional.

T4 sequence (Q9HC16 whole entry): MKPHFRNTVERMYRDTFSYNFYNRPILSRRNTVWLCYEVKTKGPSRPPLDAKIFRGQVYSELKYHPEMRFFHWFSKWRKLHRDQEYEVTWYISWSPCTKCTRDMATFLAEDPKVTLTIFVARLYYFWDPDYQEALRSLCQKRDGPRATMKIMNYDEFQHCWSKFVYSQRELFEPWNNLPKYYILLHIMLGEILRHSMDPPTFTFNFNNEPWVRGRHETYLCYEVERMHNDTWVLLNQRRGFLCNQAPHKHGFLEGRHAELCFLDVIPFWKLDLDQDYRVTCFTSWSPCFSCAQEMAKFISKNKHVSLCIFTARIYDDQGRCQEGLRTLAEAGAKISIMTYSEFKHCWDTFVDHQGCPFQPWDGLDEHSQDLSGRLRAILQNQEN
T3 sequence (P31941 whole entry): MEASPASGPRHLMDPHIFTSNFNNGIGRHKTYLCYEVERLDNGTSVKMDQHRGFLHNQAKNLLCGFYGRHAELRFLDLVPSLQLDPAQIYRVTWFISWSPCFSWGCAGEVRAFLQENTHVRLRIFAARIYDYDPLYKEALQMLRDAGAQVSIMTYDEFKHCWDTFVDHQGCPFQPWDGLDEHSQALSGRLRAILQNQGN
Chain of Focal adhesion kinase 1 (Q05397 whole entry): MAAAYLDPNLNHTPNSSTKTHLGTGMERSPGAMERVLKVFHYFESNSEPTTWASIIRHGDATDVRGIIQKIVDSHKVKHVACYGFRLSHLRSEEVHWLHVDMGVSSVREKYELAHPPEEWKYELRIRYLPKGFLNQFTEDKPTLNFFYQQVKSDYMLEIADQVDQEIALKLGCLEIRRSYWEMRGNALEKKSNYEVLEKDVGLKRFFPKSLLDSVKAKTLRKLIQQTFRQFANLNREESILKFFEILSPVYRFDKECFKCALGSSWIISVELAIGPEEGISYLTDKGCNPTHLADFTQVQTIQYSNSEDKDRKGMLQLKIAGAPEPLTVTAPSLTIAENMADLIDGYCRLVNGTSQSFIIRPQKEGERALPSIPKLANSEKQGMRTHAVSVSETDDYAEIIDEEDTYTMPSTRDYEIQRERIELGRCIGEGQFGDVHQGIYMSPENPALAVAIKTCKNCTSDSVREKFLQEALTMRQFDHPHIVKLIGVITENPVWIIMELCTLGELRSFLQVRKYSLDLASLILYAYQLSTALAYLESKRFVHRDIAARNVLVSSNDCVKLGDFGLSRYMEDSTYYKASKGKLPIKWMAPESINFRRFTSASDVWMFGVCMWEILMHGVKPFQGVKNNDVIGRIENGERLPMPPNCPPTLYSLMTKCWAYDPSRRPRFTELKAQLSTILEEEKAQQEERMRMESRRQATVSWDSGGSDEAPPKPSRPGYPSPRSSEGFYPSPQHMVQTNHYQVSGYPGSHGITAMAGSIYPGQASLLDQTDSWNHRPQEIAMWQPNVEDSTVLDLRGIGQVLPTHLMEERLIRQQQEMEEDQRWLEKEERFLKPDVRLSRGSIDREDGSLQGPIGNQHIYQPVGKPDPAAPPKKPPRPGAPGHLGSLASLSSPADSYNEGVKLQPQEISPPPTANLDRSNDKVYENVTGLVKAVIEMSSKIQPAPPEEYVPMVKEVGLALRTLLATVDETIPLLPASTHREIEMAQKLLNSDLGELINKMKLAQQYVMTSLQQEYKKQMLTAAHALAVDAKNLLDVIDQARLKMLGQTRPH
Chain of Mitogen-activated protein kinase 14 (Q16539 whole entry): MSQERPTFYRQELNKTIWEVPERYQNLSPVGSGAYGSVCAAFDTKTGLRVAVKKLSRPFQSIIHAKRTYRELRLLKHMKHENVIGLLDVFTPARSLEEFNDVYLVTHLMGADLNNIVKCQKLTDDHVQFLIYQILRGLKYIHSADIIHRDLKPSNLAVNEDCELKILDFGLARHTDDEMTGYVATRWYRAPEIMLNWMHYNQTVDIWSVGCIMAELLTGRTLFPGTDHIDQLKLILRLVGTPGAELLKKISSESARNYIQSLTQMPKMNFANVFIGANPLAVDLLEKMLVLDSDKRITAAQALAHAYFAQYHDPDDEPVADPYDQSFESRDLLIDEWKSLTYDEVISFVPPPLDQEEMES
T1 sequence (P49840 whole entry): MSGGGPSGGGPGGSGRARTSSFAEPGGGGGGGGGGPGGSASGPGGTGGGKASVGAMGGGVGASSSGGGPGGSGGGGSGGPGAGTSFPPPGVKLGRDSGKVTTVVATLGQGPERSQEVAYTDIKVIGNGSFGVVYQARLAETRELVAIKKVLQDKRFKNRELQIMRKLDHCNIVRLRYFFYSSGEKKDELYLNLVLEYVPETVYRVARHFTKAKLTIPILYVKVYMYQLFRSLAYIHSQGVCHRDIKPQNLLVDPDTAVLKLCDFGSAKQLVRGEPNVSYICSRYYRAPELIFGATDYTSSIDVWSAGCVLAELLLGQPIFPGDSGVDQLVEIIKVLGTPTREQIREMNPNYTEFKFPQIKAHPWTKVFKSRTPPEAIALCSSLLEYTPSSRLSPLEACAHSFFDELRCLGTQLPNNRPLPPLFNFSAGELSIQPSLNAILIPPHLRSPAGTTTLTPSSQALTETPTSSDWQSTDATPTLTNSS
T2 sequence (P49841 whole entry): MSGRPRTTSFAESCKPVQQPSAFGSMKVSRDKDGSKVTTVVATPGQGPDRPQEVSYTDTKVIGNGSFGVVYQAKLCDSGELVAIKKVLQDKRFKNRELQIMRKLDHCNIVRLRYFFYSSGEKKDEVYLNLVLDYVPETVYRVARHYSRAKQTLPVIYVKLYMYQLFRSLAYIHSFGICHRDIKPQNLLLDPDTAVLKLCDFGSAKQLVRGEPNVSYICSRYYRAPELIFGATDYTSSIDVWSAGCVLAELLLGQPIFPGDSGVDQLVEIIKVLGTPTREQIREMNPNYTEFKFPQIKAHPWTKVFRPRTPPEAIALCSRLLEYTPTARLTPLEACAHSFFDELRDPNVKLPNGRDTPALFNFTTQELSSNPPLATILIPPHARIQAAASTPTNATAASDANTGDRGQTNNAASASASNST
Chain of Calcium/calmodulin-dependent protein kinase type II subunit alpha (Q9UQM7 whole entry): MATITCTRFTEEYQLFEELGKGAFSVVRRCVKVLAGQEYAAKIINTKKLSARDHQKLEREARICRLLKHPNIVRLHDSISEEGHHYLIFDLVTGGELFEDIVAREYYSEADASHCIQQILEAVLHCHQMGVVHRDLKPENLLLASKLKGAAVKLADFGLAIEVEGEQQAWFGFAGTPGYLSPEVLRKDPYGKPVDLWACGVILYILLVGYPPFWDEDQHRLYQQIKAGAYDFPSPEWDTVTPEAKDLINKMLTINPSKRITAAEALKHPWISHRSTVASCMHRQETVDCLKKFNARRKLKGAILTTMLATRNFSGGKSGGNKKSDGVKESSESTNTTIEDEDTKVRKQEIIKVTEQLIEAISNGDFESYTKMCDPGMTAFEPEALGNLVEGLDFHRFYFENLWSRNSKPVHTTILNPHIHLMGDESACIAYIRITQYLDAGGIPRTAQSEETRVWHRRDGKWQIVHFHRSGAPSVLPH
Chain of Mitogen-activated protein kinase kinase kinase kinase 5 (Q9Y4K4 whole entry): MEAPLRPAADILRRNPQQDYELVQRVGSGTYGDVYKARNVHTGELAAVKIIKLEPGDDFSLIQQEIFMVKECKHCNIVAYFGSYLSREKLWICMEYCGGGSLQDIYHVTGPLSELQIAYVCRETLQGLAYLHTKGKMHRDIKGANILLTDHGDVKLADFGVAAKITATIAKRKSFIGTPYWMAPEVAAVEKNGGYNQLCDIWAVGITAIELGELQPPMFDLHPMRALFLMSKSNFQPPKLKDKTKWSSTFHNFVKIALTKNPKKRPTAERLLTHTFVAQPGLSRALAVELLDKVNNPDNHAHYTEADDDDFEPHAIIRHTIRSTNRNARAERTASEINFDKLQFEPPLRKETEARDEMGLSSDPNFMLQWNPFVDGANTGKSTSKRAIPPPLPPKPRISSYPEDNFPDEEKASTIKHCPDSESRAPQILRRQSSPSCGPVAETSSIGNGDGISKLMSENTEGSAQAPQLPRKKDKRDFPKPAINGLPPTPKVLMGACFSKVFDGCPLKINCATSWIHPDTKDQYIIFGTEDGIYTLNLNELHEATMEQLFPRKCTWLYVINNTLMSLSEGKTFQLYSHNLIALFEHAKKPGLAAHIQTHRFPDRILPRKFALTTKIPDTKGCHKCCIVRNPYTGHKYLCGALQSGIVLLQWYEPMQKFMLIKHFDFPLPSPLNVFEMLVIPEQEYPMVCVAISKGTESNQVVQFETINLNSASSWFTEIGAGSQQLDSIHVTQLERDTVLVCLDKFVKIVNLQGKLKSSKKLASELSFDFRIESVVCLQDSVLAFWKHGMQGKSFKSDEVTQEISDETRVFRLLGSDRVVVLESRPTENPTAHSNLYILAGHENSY
Chain of Tyrosine-protein kinase Lck (P06239 whole entry): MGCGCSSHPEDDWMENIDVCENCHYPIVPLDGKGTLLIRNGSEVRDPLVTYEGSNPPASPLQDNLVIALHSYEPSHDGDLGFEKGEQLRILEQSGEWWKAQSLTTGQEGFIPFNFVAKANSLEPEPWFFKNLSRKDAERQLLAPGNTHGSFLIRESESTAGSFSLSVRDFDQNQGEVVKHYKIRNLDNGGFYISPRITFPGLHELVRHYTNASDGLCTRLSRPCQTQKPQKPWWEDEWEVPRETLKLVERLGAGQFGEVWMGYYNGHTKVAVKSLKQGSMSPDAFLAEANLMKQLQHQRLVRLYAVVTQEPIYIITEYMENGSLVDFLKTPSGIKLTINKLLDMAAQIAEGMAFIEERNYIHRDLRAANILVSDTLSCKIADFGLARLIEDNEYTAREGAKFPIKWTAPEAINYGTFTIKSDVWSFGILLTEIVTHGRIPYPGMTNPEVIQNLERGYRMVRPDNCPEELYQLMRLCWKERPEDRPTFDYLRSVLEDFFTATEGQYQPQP
Chain of FAD-linked sulfhydryl oxidase ALR (P55789 whole entry): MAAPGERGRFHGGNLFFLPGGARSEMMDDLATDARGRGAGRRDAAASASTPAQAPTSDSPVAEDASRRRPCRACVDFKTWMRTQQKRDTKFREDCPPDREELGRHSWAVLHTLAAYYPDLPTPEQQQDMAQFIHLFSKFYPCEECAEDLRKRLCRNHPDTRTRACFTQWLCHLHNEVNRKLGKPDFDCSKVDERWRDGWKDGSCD

On to `CC(C)C(CO)NC(=O)c1cccc(-n2nc(C(C)(C)C)cc2NC(=O)Nc2cccc3ccccc23)c1` (stereo not drawn), for which the Ki in [1] is > 3.98 µM (inactive); in [2], > 3.98 µM (inactive); in [3], > 6.31 µM (inactive); in assay [4], > 3.98 µM (inactive); in assay [5] it was > 5.01 µM (inactive); at Focal adhesion kinase 1, > 6.31 µM (inactive) and > 5.01 µM (inactive). The Ki in assay [6] is > 3.98 µM (inactive); in assay [7], > 3.98 µM (inactive); in [8], 0.316 µM (active); in [9], > 3.98 µM (inactive); in [10] it was 398 nM (active) and 501 nM (active); in assay [11], > 3.98 µM (inactive). Besides, the Ki in assay [12] was > 5.01 µM (inactive); in [13] it was > 3.98 µM (inactive); in [14], > 7.94 µM (inactive); in assay [15] it was > 6.31 µM (inactive); in [16] it was > 3.98 µM (inactive); in assay [17] it was > 6.31 µM (inactive). In addition, the Ki was 0.398 µM (active) in assay [18]; > 3.16 µM (inactive) in [19]; > 3.98 µM (inactive) in [20]; > 6.31 µM (inactive) in assay [21]; > 3.98 µM (inactive) on Activated CDC42 kinase 1; 2.51 µM (active) in assay [22]. Also, the Ki was > 5.01 µM (inactive) in [23]; > 3.98 µM (inactive) in assay [24]; > 5.01 µM (inactive) in assay [25]; > 3.98 µM (inactive) in [26]; > 6.31 µM (inactive) in [27]; > 3.98 µM (inactive) in assay [28]. The figures for the Ki in assay [29] and in [30] were > 3.98 µM (inactive) and > 6.31 µM (inactive), respectively.
`Cc1ccc2[nH]cc(/C=C/c3cc[n+](C)cc3)c2c1`: the EC50 in [31] was 9.85 µM (active); in assay [32], > 60 µM (not active); in assay [35], 1.43 µM (active); in assay [40], 12.2 µM (active); in assay [42], 13.6 µM (active). Besides, the IC50 in assay [33] was > 99 µM (inactive); in [36], > 99 µM (inactive); at Beta-lactamase [37] it was 49.2 µM (inactive); in assay [38] it was > 99 µM (inactive); at Beta-lactamase [39] it was > 59.6 µM (inactive); in assay [41] it was > 99 µM (inactive). For the same compound, the values for the IC50 in assay [43] and in [44] were > 100 µM (inactive) and 3.49 µM (active), respectively. Further, the results for the AC50 (in assay [34]; in the assay on INS1) were 1.49 µM (active) and 4.88 µM (active), respectively.
With `COC(=O)C(C)Sc1ccc2nnc(-c3ccc(F)cc3)n2n1` (stereo not drawn), the AC50 in [45] was 1.24 µM (active); in assay [46] it was 5.24 µM (active); on Cytochrome P450 2C9 it was 3.55 µM (inconclusive); on Cytochrome P450 2C19, 39.8 µM (inconclusive).
In the case of `CCOc1c(F)cc(Oc2c(Cl)cnn(Cc3cccc4ccccc34)c2=O)cc1F`, the IC50 in assay [47] was 9.19 µM (active); in [48] it was 2.37 µM (active).

Values taken from ChEMBL document CHEMBL1201862, “PubChem BioAssay data set” (2004).
